These are literature values, as cited in patent US9238073B2, “Pharmaceutical composition containing sympathomimetic amine salt and co-distillable additive” (Wyeth LLC, priority 2006, dated 2016).

The conditions of this data set: (R)-methamphetamine from reduction of (-)-pseudoephedrine.

As for (R)-methamphetamine, the “psychoactivity relative to (S)-methamphetamine” value is reported as “one-tenth”.
